# Assay results: patent US11419852B2, “Beta-lactam compounds or salts thereof for use in long-acting prevention or treatment of a glucose metabolism disorder” (GLYCOLYSIS BIOMED CO., LTD., priority 2019, dated 2022)
# Marks after values point to notes of the source that are not given here.
# Assays:
# Assay type in all cases: in vivo
# db/db mice [1] = assay: Oral glucose tolerance test (OGTT); parameters: OGTT AUC: unit not given here
# Method: Four to five weeks old db/db mice (BKS.Cg-Dock7^m+/+Lepr^db/JNarl) and m/m mice (BKS.Cg-Dock7^m+/Dock7^m+) were obtained from National Laboratory Animal Center ([…], Taiwan). […] PMI Nutrition International, Brentwood, Mo.) and water ad libitum. […] Blood was sampled from the tail vein, and FPG levels were measured and recorded as the basic blood glucose levels. […] The total area under the curve (AUC) in OGTT was plotted and calculated by the Area Under Coordinates Program (StatsToDo Server, Department of Obstetrics and Gynecology, Chinese University of Hong Kong).
# db/db mice [2] = assay: Plasma biochemical parameters (AST, ALT, BUN, Cr, HbA1c)
# Method: Inflammatory markers such as serum aspartate aminotransferase (AST), alanine aminotransferase (ALT), blood urea nitrogen (BUN), creatinine (Cr), and hemoglobin Alc (HbAlc) were measured using a BMC-Hitachi 717 chemistry auto analyzer.
# db/db mice [3] = assay: Histopathological assessment (H&E stain)
# Source text: For histopathological assessment, all mice were sacrificed by 95% CO2 asphyxiation at the end of the study period. Their brain, liver, kidney, pancreas, and epididymal fat pads were removed, fixed in 10% phosphate-buffered formalin, and embedded in paraffin. Tissues embedded in paraffin were cut into […] sections that were then stained with hematoxylin-eosin (i.e., H&E stain).
# [4] = Ex 1: db/db mice, ertapenem i.p. 0.41 mg/g bw/day, week 3
# [5] = Ex 3, after the treatments had been stopped for 6 weeks
# [6] = Ex 3: db/db mice, daily dosing 3 weeks at doses of Table 10, week 9
smiles,measurement,setting,value
"C[C@@H](O)[C@H]1C(=O)N2C(C(=O)O)=C(S[C@@H]3CN[C@H](C(=O)Nc4cccc(C(=O)O)c4)C3)[C@H](C)[C@H]12 [DMH, ertapenem]",Level of OGTT (blood glucose),"db/db mice [1]; Ex 2 G5 db/db, DMH i.p. 0.2 mg/g bw/day, dosing 6 weeks, Week 6, 120 min",316 ± 92^bc
same,Level of OGTT (blood glucose),"db/db mice [1]; Ex 2 G5 db/db, DMH i.p. 0.2 mg/g bw/day, dosing 6 weeks, Week 12, 0 min",191 ± 42^bc
same,Level of OGTT (blood glucose),"db/db mice [1]; Ex 2 G5 db/db, DMH i.p. 0.2 mg/g bw/day, dosing 6 weeks, Week 12, 15 min",879 ± 45 mg/dL
same,Level of OGTT (blood glucose),"db/db mice [1]; Ex 2 G5 db/db, DMH i.p. 0.2 mg/g bw/day, dosing 6 weeks, Week 12, 30 min",790 ± 40^bc
same,Level of OGTT (blood glucose),"db/db mice [1]; Ex 2 G5 db/db, DMH i.p. 0.2 mg/g bw/day, dosing 6 weeks, Week 12, 60 min",548 ± 69 mg/dL
same,Level of OGTT (blood glucose),"db/db mice [1]; Ex 2 G5 db/db, DMH i.p. 0.2 mg/g bw/day, dosing 6 weeks, Week 12, 120 min",440 ± 81^bc
same,Level of OGTT (blood glucose),"db/db mice [1]; Ex 2 G5 db/db, DMH i.p. 0.2 mg/g bw/day, dosing 6 weeks, Week 16, 0 min",154 ± 56^ab
same,Level of OGTT (blood glucose),"db/db mice [1]; Ex 2 G5 db/db, DMH i.p. 0.2 mg/g bw/day, dosing 6 weeks, Week 16, 15 min",619 ± 48 mg/dL
same,Level of OGTT (blood glucose),"db/db mice [1]; Ex 2 G5 db/db, DMH i.p. 0.2 mg/g bw/day, dosing 6 weeks, Week 16, 30 min",686 ± 34^bc
same,Level of OGTT (blood glucose),"db/db mice [1]; Ex 2 G5 db/db, DMH i.p. 0.2 mg/g bw/day, dosing 6 weeks, Week 16, 60 min",551 ± 52^bc
same,Level of OGTT (blood glucose),"db/db mice [1]; Ex 2 G5 db/db, DMH i.p. 0.2 mg/g bw/day, dosing 6 weeks, Week 16, 120 min",314 ± 54^bc
same,Level of OGTT (blood glucose),"db/db mice [1]; Ex 2 G5 db/db, DMH i.p. 0.2 mg/g bw/day, dosing 6 weeks, Week 18, 0 min",308 ± 51 mg/dL
same,Level of OGTT (blood glucose),"db/db mice [1]; Ex 2 G5 db/db, DMH i.p. 0.2 mg/g bw/day, dosing 6 weeks, Week 18, 15 min",943 ± 43 mg/dL
same,Level of OGTT (blood glucose),"db/db mice [1]; Ex 2 G5 db/db, DMH i.p. 0.2 mg/g bw/day, dosing 6 weeks, Week 18, 30 min",941 ± 53 mg/dL
same,Level of OGTT (blood glucose),"db/db mice [1]; Ex 2 G5 db/db, DMH i.p. 0.2 mg/g bw/day, dosing 6 weeks, Week 18, 60 min",753 ± 70 mg/dL
same,Level of OGTT (blood glucose),"db/db mice [1]; Ex 2 G5 db/db, DMH i.p. 0.2 mg/g bw/day, dosing 6 weeks, Week 18, 120 min",541 ± 63^bc
same,OGTT AUC,"db/db mice [1]; Ex 2 G5 db/db, DMH i.p. 0.2 mg/g bw/day, dosing 6 weeks, week 6",916 ± 110^b
same,OGTT AUC,"db/db mice [1]; Ex 2 G5 db/db, DMH i.p. 0.2 mg/g bw/day, dosing 6 weeks, week 12",1171 ± 117^bc
same,OGTT AUC,"db/db mice [1]; Ex 2 G5 db/db, DMH i.p. 0.2 mg/g bw/day, dosing 6 weeks, week 16",1002 ± 88^bc
same,OGTT AUC,"db/db mice [1]; Ex 2 G5 db/db, DMH i.p. 0.2 mg/g bw/day, dosing 6 weeks, week 18",1462 ± 104^b
same,Level of OGTT (blood glucose),"db/db mice [1]; Ex 2 G6 db/db, DMH i.p. 0.4 mg/g bw/day, dosing 6 weeks, Week 6, 0 min",175 ± 30 mg/dL
same,Level of OGTT (blood glucose),"db/db mice [1]; Ex 2 G6 db/db, DMH i.p. 0.4 mg/g bw/day, dosing 6 weeks, Week 6, 15 min",747 ± 38 mg/dL
same,Level of OGTT (blood glucose),"db/db mice [1]; Ex 2 G6 db/db, DMH i.p. 0.4 mg/g bw/day, dosing 6 weeks, Week 6, 30 min",669 ± 69 mg/dL
same,Level of OGTT (blood glucose),"db/db mice [1]; Ex 2 G6 db/db, DMH i.p. 0.4 mg/g bw/day, dosing 6 weeks, Week 6, 60 min",418 ± 56 mg/dL
same,Level of OGTT (blood glucose),"db/db mice [1]; Ex 2 G6 db/db, DMH i.p. 0.4 mg/g bw/day, dosing 6 weeks, Week 6, 120 min",223 ± 27^ab
same,Level of OGTT (blood glucose),"db/db mice [1]; Ex 2 G6 db/db, DMH i.p. 0.4 mg/g bw/day, dosing 6 weeks, Week 12, 0 min",166 ± 26^ac
same,Level of OGTT (blood glucose),"db/db mice [1]; Ex 2 G6 db/db, DMH i.p. 0.4 mg/g bw/day, dosing 6 weeks, Week 12, 15 min",859 ± 50 mg/dL
same,Level of OGTT (blood glucose),"db/db mice [1]; Ex 2 G6 db/db, DMH i.p. 0.4 mg/g bw/day, dosing 6 weeks, Week 12, 30 min",698 ± 65 mg/dL
same,Level of OGTT (blood glucose),"db/db mice [1]; Ex 2 G6 db/db, DMH i.p. 0.4 mg/g bw/day, dosing 6 weeks, Week 12, 60 min",489 ± 55 mg/dL
same,Level of OGTT (blood glucose),"db/db mice [1]; Ex 2 G6 db/db, DMH i.p. 0.4 mg/g bw/day, dosing 6 weeks, Week 12, 120 min",324 ± 47 mg/dL
same,Level of OGTT (blood glucose),"db/db mice [1]; Ex 2 G6 db/db, DMH i.p. 0.4 mg/g bw/day, dosing 6 weeks, Week 16, 0 min",108 ± 22^ab
same,Level of OGTT (blood glucose),"db/db mice [1]; Ex 2 G6 db/db, DMH i.p. 0.4 mg/g bw/day, dosing 6 weeks, Week 16, 15 min",543 ± 57 mg/dL
same,Level of OGTT (blood glucose),"db/db mice [1]; Ex 2 G6 db/db, DMH i.p. 0.4 mg/g bw/day, dosing 6 weeks, Week 16, 30 min",650 ± 29^bc
same,Level of OGTT (blood glucose),"db/db mice [1]; Ex 2 G6 db/db, DMH i.p. 0.4 mg/g bw/day, dosing 6 weeks, Week 16, 60 min",535 ± 43^bc
same,Level of OGTT (blood glucose),"db/db mice [1]; Ex 2 G6 db/db, DMH i.p. 0.4 mg/g bw/day, dosing 6 weeks, Week 16, 120 min",244 ± 35^ab
same,Level of OGTT (blood glucose),"db/db mice [1]; Ex 2 G6 db/db, DMH i.p. 0.4 mg/g bw/day, dosing 6 weeks, Week 18, 0 min",266 ± 35 mg/dL
same,Level of OGTT (blood glucose),"db/db mice [1]; Ex 2 G6 db/db, DMH i.p. 0.4 mg/g bw/day, dosing 6 weeks, Week 18, 15 min",872 ± 46 mg/dL
same,Level of OGTT (blood glucose),"db/db mice [1]; Ex 2 G6 db/db, DMH i.p. 0.4 mg/g bw/day, dosing 6 weeks, Week 18, 30 min",860 ± 58 mg/dL
same,Level of OGTT (blood glucose),"db/db mice [1]; Ex 2 G6 db/db, DMH i.p. 0.4 mg/g bw/day, dosing 6 weeks, Week 18, 60 min",637 ± 64 mg/dL
same,Level of OGTT (blood glucose),"db/db mice [1]; Ex 2 G6 db/db, DMH i.p. 0.4 mg/g bw/day, dosing 6 weeks, Week 18, 120 min",480 ± 73 mg/dL
same,OGTT AUC,"db/db mice [1]; Ex 2 G6 db/db, DMH i.p. 0.4 mg/g bw/day, dosing 6 weeks, week 6",884 ± 84^b
same,OGTT AUC,"db/db mice [1]; Ex 2 G6 db/db, DMH i.p. 0.4 mg/g bw/day, dosing 6 weeks, week 12",1026 ± 94^b
same,OGTT AUC,"db/db mice [1]; Ex 2 G6 db/db, DMH i.p. 0.4 mg/g bw/day, dosing 6 weeks, week 16",916 ± 68^b
same,OGTT AUC,"db/db mice [1]; Ex 2 G6 db/db, DMH i.p. 0.4 mg/g bw/day, dosing 6 weeks, week 18",1291 ± 118^b
same,Regulation of blood glucose homeostasis (OGTT glucose vs G8),"db/db mice [1]; Ex 3, medications stopped for at least 3 weeks (FIG. 6A, 6B)",still effective
same,OGTT AUC,"db/db mice [1]; Ex 3: db/db mice, daily dosing 3 weeks at doses of Table 10, Week 6 (stopped for 3 weeks)",1263 ± 135^b
same,OGTT AUC,"db/db mice [1]; Ex 3: db/db mice, daily dosing 3 weeks at doses of Table 10, Week 9 (stopped for 6 weeks)",1356 ± 149^bc
same,"Levels of AST, ALT, BUN, and HbA1c in the diabetes mice","db/db mice [2]; Ex 1, week 3",significantly reduced
same,ALT,db/db mice [2]; [4],34 ± 6 U/L
same,AST,db/db mice [2]; [4],61 ± 7 U/L
same,BUN,db/db mice [2]; [4],27 ± 2 mg/dL
same,Creatinine,db/db mice [2]; [4],0.57 ± 0.02 mg/dL
same,HbA1c,db/db mice [2]; [4],6.1 ± 0.8 %
same,Level of ALT,db/db mice [2]; [5],reduce
same,Level of AST,db/db mice [2]; [5],reduce
same,Level of HbA1c,db/db mice [2]; [5],reduce
same,ALT,db/db mice [2]; [6],79 ± 8^bc U/L
same,AST,db/db mice [2]; [6],127 ± 13^ad U/L
same,BUN,db/db mice [2]; [6],44 + 2^d mg/dL
same,Creatinine,db/db mice [2]; [6],0.467 ± 0.01^bd mg/dL
same,HbA1c,db/db mice [2]; [6],5.8 ± 0.3^d %
same,"Injuries in brain, liver, kidney, pancreas, and epididymal fat pads","db/db mice [3]; Ex 1, after 3 weeks 0.41 mg/g bw/day i.p.",no significant injuries
same,Severity and incidence of liver glycogen storage vs DB group,"db/db mice [3]; Ex 1, hepatocyte cytoplasm around central venous region",slighter
same,"Injuries in liver, kidney, pancreas, and epididymal fat pads",db/db mice [3]; Ex 2,No significant injuries
